Data on four compounds can be found in US10166142B2, “Small molecule delivery with implantable therapeutic device” (ForSight Vision4, Inc., priority 2011, dated 2019).

Data set [1] in a line: Diffusion coefficient in water (literature value / estimate by MW scaling). In kind it is physicochemical. The following applies: estimated, at 37C.
Text: If the reservoir solution is aqueous or has a viscosity similar to water, the value for the diffusion coefficient of the therapeutic agent (TA) in water at the temperature of interest may be used. […] (Molokhia et al, Exp Eye Res 2008): DTA,37C=DBSA,20C(η20C/η37C)(MWBSA/MWTA)^1/3 where
MW refers to the molecular weight of either BSA or the test compound and η is the viscosity of water.
Small molecules have a diffusion coefficient similar to fluorescein (MW=330, D=4.8 to 6 e-6 cm^2/s from Stay, M S et al. Pharm Res 2003, 20(1), pp. 96-102). For example, the small molecule may comprise a glucocorticoid such as triamcinolone acetonide having a molecular weight of about 435.
(§1) The volume of the device was approximately 25 uL.
as §1

For data set [2] the following is noted: cited from earlier work.
For data set [3] the following is noted: rabbit and monkey (Gaudreault et al), cited from earlier work.
Data set [4] relates to laser photocoagulation treatment-induced Grade IV choroidal neovascularization (CNV) Lesions. The following applies: intravitreal injection, all doses tested (Z. Yao et al., ARVO 2009); cited from earlier work.
A short description of data set [5]: Solubility of dorzolamide suspension formulation, Example A. The class given is physicochemical. Particulars: aqueous buffer, thermodynamic from solid; PBS+0.02% sodium azide, pH 7.4, 37C; read-out: dissolved concentration (i.e., solubility).

Structures can show the parent of a compound that is named as a salt. Where two headings read alike, the source gives them in different places.

For `CN(Cc1cnc2nc(N)nc(N)c2n1)c1ccc(C(=O)N[C@@H](CCC(=O)O)C(=O)O)cc1` [Methotrexate, methotrexate], the diffusion coefficient in data set [1] is on record as 5×10^−6 cm^2/s.
Regarding ranibizumab [Lucentis], the half-life in vitreous in data set [2] (human eye (Lucentis package insert)) was around 220 h; in data set [3] it was “about two to four days”; in data set [3] (listed as ranibizumab), “approximately 3 days”. In addition, the “Half-life” value in data set [2] (human vitreous, model parameter for FIGS. 119 to 124) was 220 h. Moreover, the “development of Grade IV CNV lesions” value in data set [4] is recorded as “completely inhibit”.
As to `O=C(c1ccccc1)c1ccc2n1CCC2C(=O)O` (centres unmarked) [Ketorolac, Ketorolac Tromethamine], in data set [1], the diffusion coefficient is on record as 6×10^−6 cm^2/s.
On to `CCN[C@H]1C[C@H](C)S(=O)(=O)c2sc(S(N)(=O)=O)cc21` [Dorzolamide, dorzolamide Hydrochloride], for which the solubility in data set [5] was 9000 µg/mL.
